From PubChem BioAssay (NCI)
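Five concentrations, 48 hours, 96-well plates. Here, GI50 denotes the concentration required for 50% inhibition of growth. The concentration for full growth arrest is given as TGI.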

Legend:
Experiment in all cases: NCI-60 cell line screen, 48 h; in the data active = GI50 below about 0.43 µM; inactive = the rest
[1] = system: 786-0 renal
[2] = system: A498 renal
[3] = system: A549 NSCLC
[4] = system: ACHN renal
[5] = system: BT-549 breast
[6] = system: CAKI-1 renal
[7] = system: CCRF-CEM leukemia
[8] = system: COLO 205 colon
[9] = system: DU-145 prostate
[10] = system: EKVX NSCLC
[11] = system: HCC-2998 colon
[12] = system: HCT-116 colon
[13] = system: HCT-15 colon
[14] = system: HL-60(TB) leukemia
[15] = system: HOP-62 NSCLC
[16] = system: HOP-92 NSCLC
[17] = system: HS 578T breast
[18] = system: HT29 colon
[19] = system: IGROV1 ovarian
[20] = system: K-562 leukemia
[21] = system: KM12 colon
[22] = system: LOX IMVI melanoma
[23] = system: M14 melanoma
[24] = system: MALME-3M melanoma
[25] = system: MCF7 breast
[26] = system: MDA-MB-231 breast
[27] = system: MDA-MB-435
[28] = system: MOLT-4 leukemia
[29] = system: NCI-H226 lung
[30] = system: NCI-H23 lung
[31] = system: NCI-H460 lung
[32] = system: NCI-H522 lung
[33] = system: NCI/ADR-RES ovarian
[34] = system: OVCAR-3 ovarian
[35] = system: OVCAR-4 ovarian
[36] = system: OVCAR-5 ovarian
[37] = system: OVCAR-8 ovarian
[38] = system: PC-3 prostate
[39] = system: RPMI-8226 leukemia
[40] = system: RXF 393 renal
[41] = system: SF-268 CNS
[42] = system: SF-295 CNS
[43] = system: SF-539 CNS
[44] = system: SK-MEL-2 melanoma
[45] = system: SK-MEL-28 melanoma
[46] = system: SK-MEL-5 melanoma
[47] = system: SK-OV-3 ovarian
[48] = system: SN12C renal
[49] = system: SNB-19 CNS
[50] = system: SNB-75 CNS
[51] = system: SR leukemia
[52] = system: T-47D breast
[53] = system: TK-10 renal
[54] = system: U251 CNS
[55] = system: UACC-257 melanoma
[56] = system: UACC-62 melanoma
[57] = system: UO-31 renal
[58] = system: MDA-N
[59] = system: SW-620 colon

CCCCCCCCCCCCNC(=O)N[C@H](C(=O)N[C@H]1/C=C/OCCNC(=O)/C=C/[C@H](C(C)C)NC1=O)C(C)C
33.6 µM: TGI [5]
65.4 µM: TGI [18]
38.1 µM: TGI [17]
58.7 µM: TGI [16]
18.4 µM: TGI [43]
14.8 µM: TGI [46]
> 57.4 µM: TGI [8]
> 19.7 µM: TGI [29]
> 59.2 µM: TGI [44]
34 µM: TGI [15]
59.4 µM: TGI [39]
49.3 µM: TGI [26]
5.2 µM: TGI [32]
26.2 µM: TGI [45]
61.3 µM: TGI [31]
55.7 µM: TGI [14]
> 55.2 µM: TGI [54]
20.9 µM: TGI [51]
36.4 µM: TGI [22]
28.2 µM: TGI [40]
> 78.7 µM: TGI [34]
active: GI50 [25] 0.385 µM | GI50 [32] 0.372 µM | GI50 [39] 0.389 µM | GI50 [51] 0.393 µM
30 µM: TGI [21]
57 µM: TGI [2]
> 70.3 µM: TGI [23]
> 92.7 µM: TGI [36]
inactive: GI50 [1] 40.1 µM | GI50 [2] 7.81 µM | GI50 [3] 32.3 µM | GI50 [4] 51.3 µM | GI50 [5] 2.19 µM | GI50 [6] > 100 µM | GI50 [7] 2.16 µM | GI50 [8] 20 µM | GI50 [9] 14 µM | GI50 [10] 36.6 µM | GI50 [11] 12.9 µM | GI50 [12] 1.67 µM | GI50 [13] > 66.3 µM | GI50 [14] 14.7 µM | GI50 [15] 8.5 µM | GI50 [16] 5.14 µM | GI50 [17] 3.22 µM | GI50 [18] 0.599 µM | GI50 [19] 2.12 µM | GI50 [20] 9.15 µM | GI50 [21] 4.72 µM | GI50 [22] 9.4 µM | GI50 [23] 20.2 µM | GI50 [24] 39.3 µM | GI50 [26] 11.7 µM | GI50 [27] 1.48 µM | GI50 [28] 3.26 µM | GI50 [29] 4.53 µM | GI50 [30] 0.973 µM | GI50 [31] 6.16 µM | GI50 [33] > 100 µM | GI50 [34] 0.568 µM | GI50 [35] 3.61 µM | GI50 [36] 6.82 µM | GI50 [37] 13.7 µM | GI50 [38] 0.682 µM | GI50 [40] 3.65 µM | GI50 [41] 7.99 µM | GI50 [42] 21.4 µM | GI50 [43] 2.49 µM | GI50 [44] 4 µM | GI50 [45] 3.28 µM | GI50 [46] 2.03 µM | GI50 [47] > 75.3 µM | GI50 [48] 23.6 µM | GI50 [49] 4.3 µM | GI50 [50] 4.31 µM | GI50 [52] 3.14 µM | GI50 [53] 10.3 µM | GI50 [54] 2.15 µM | GI50 [55] 20 µM | GI50 [56] 3.1 µM | GI50 [57] > 100 µM
34.1 µM: TGI [37]
> 100 µM: TGI [1] | TGI [3] | TGI [4] | TGI [6] | TGI [7] | TGI [9] | TGI [10] | TGI [13] | TGI [19] | TGI [20] | TGI [24] | TGI [25] | TGI [27] | TGI [28] | TGI [30] | TGI [33] | TGI [35] | TGI [38] | TGI [41] | TGI [42] | TGI [47] | TGI [48] | TGI [49] | TGI [50] | TGI [52] | TGI [57]
> 60.1 µM: TGI [11]
21.7 µM: TGI [12]
39 µM: TGI [56]
> 76.4 µM: TGI [53]
> 93.7 µM: TGI [55]

Cc1cccc2c(=O)c3cccc(CC(=O)O)c3oc12
> 100 µM: TGI [1] | TGI [2] | TGI [3] | TGI [4] | TGI [6] | TGI [7] | TGI [8] | TGI [10] | TGI [11] | TGI [12] | TGI [13] | TGI [14] | TGI [15] | TGI [16] | TGI [17] | TGI [18] | TGI [19] | TGI [20] | TGI [21] | TGI [22] | TGI [23] | TGI [24] | TGI [25] | TGI [26] | TGI [27] | TGI [58] | TGI [28] | TGI [29] | TGI [30] | TGI [31] | TGI [32] | TGI [33] | TGI [34] | TGI [35] | TGI [37] | TGI [38] | TGI [39] | TGI [41] | TGI [42] | TGI [43] | TGI [44] | TGI [45] | TGI [46] | TGI [47] | TGI [48] | TGI [49] | TGI [51] | TGI [59] | TGI [52] | TGI [53] | TGI [54] | TGI [55] | TGI [56] | TGI [57]

COc1ccc(C2OC2C(=O)C23CC4CC(CC(C4)C2)C3)cc1 (stereo not given)
> 100 µM: TGI [1] | TGI [2] | TGI [3] | TGI [4] | TGI [7] | TGI [9] | TGI [10] | TGI [11] | TGI [12] | TGI [13] | TGI [15] | TGI [16] | TGI [18] | TGI [19] | TGI [20] | TGI [21] | TGI [22] | TGI [23] | TGI [24] | TGI [25] | TGI [26] | TGI [27] | TGI [58] | TGI [28] | TGI [29] | TGI [30] | TGI [31] | TGI [32] | TGI [33] | TGI [34] | TGI [35] | TGI [36] | TGI [37] | TGI [38] | TGI [39] | TGI [40] | TGI [41] | TGI [42] | TGI [43] | TGI [45] | TGI [46] | TGI [48] | TGI [49] | TGI [59] | TGI [52] | TGI [53] | TGI [54] | TGI [55] | TGI [57]
50.4 µM: TGI [17]
97.2 µM: TGI [14]
49 µM: TGI [56]
